Test results as given in patent US20250388565A1, “ESTROGEN RECEPTOR ALPHA DEGRADERS AND METHODS OF USE THEREOF” (Relay Therapeutics, Inc., priority 2022, published 2025).

Biological target: T1, ERα protein (HiBiT-tagged) in ESR1_HiBiT KI MCF7 cells (Homo sapiens, UniProt P03372)
T1 sequence (P03372 1-595): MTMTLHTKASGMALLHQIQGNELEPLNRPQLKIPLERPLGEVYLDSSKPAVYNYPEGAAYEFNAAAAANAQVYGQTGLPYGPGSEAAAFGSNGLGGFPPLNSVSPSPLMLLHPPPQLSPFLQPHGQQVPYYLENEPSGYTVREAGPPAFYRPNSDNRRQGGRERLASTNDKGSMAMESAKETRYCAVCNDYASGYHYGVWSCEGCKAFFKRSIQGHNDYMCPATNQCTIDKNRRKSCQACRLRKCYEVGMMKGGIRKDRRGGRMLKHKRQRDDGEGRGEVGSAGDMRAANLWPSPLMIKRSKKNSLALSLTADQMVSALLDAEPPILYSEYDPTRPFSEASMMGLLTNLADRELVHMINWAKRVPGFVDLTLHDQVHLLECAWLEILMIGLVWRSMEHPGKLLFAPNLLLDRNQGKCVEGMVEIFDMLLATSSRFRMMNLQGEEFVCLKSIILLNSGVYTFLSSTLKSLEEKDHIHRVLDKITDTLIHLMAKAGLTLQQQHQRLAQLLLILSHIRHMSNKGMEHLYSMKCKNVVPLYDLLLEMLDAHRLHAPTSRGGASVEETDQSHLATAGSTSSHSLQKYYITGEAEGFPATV
Experiment: Nano Glo HiBiT Lytic Degradation Assay
Type: cell-based
Details: 6 hours with compound, 14-point dose response 1:3, bell-shape curve fit, half-maximal effect of first Hill model, read-out: MCF7 ESR1 HiBiT - (DC50)
Description: Selected compounds of the present disclosure were tested in a Nano Glo HiBiT Lytic Degradation Assay to measure the level of ERα protein degradation in MCF7 cells.
Cell culture: ESR1_HiBiT KI MCF7 cells were maintained in growth media without antibiotics. Cells were maintained in exponential growth phase, between 40% and 90% confluency.
Cell seeding: Cells were counted using a Vi-Cell and seeded in a 384-well flat-bottom microplate (cell culture-treated) at 4000 cells/well in 25 μL of growth medium using a BioTek MultiFlo Multimode Dispenser. Plates were incubated for 24 h at 37° C., 5% CO2, >95% relative humidity.
Compound preparation: Compounds were screened as 14-point dose response curves 1:3 dilutions. DMSO is used as the vehicle control and all wells were normalized to the same final DMSO concentration (0.1% v/v). Compounds were dosed using an Echo Acoustic Liquid Handler, 25 nL of 1000× (10 mM top concentration) DMSO stock/well. Cells were incubated with compounds for 6 hours at 37° C., 5% CO2, >95% relative humidity. Each compound was run in duplicate.
Nano Glo HiBiT Lytic Degradation Assay: HiBiT-tagged ERα protein levels were quantified using a Nano Glo HiBiT Lytic Degradation Assay following the manufacturer's protocol. Briefly, the Nano-Glo® HiBiT Lytic Reagent was prepared by diluting the LgBiT Protein reagent (1:100) and the Nano-Glo® HiBiT Lytic Substrate (1:50) into Nano-Glo® HiBiT Lytic Buffer at room temperature. The 384-well microplate were equilibrated to room temperature and 25 μL of Nano-Glo® HiBiT Lytic Reagent was added to each well. Samples were mixed by placing the 384-well microplate on an orbital shaker for 10 minutes. Luminescence was measured using an EnVision 2105 Multimode Plate Reader.
Data processing and analysis: Background signal (wells containing growth medium without cells) was subtracted from individual relative light units (RLU) values and the resulting values were normalized to the DMSO control well values. Dose responses were analyzed with Genedata Screener® using a bell-shape curve fit and the concentrations corresponding to the half-maximal effect of the first Hill model were used as DC50 values.

| DC50 [nM] | SMILES |
| --- | --- |
| 0.14 | Cn1ccc([C@@H]2CCc3cc(O)ccc3[C@@H]2c2ccc(N3CCC(CN4CCN(c5ccc6c(c5)CN([C@H]5CCC(=O)NC5=O)C6=O)CC4)CC3)cc2)n1 (single isomer, unassigned) [Compound I-29] |
| 4 | O=C1CC[C@H](N2Cc3cc(N4CCN(CC5CCN(c6ccc([C@@H]7c8ccc(O)c(Cl)c8CC[C@@H]7c7ccccc7)cc6)CC5)CC4)ccc3C2=O)C(=O)N1 [II-65] |
| 1 | O=C1CC[C@H](N2Cc3cc(N4CCN(CC5CCN(c6ccc([C@@H]7c8ccc(O)cc8CO[C@@H]7c7cccc(OC(F)(F)F)c7)cc6)CC5)CC4)ccc3C2=O)C(=O)N1 [Compound I-362, (S)-3-(5-(4-((1-(4-((3S,4R)-7-hydroxy-3-(3-(trifluoromethoxy)phenyl)isochroman-4-yl)phenyl)piperidin-4-yl)methyl)piperazin-1-yl)-1-oxoisoindolin-2-yl)piperidine-2,6-dione] |
| 54 | Cc1ccc([C@@H]2OCc3cc(O)ccc3[C@@H]2c2ccc(N3CCC(CN4CCN(c5ccc6c(c5)CN([C@H]5CCC(=O)NC5=O)C6=O)CC4)CC3)cc2)cc1F (single isomer, unassigned) [Compound I-356] |
| ≥ 10000 | Cc1cc(N2CCC(CN3CCN(c4ccc5c(c4)CN([C@H]4CCC(=O)NC4=O)C5=O)CC3)CC2)ccc1[C@H]1c2ccc(O)cc2CC[C@H]1c1ccccc1 [Compound I-138, (S)-3-(5-(4-((1-(4-((1S,2R)-6-hydroxy-2-phenyl-1,2,3,4-tetrahydronaphthalen-1-yl)-3-methylphenyl)piperidin-4-yl)methyl)piperazin-1-yl)-1-oxoisoindolin-2-yl)piperidine-2,6-dione] |
| 0.79 | C[C@@H]1O[C@H](C2CCCCC2)[C@H](c2ccc(N3CCC(CN4CCN(c5ccc6c(c5)CN([C@H]5CCC(=O)NC5=O)C6=O)CC4)CC3)cc2)c2ccc(O)cc21 (single isomer, unassigned) [Compound I-205, (S)-3-(5-(4-((1-(4-((1*S,3*R,4*R)-3-cyclohexyl-7-hydroxy-1-methylisochroman-4-yl)phenyl)piperidin-4-yl)methyl)piperazin-1-yl)-1-oxoisoindolin-2-yl)piperidine-2,6-dione] |
| 0.02 | Cn1nccc1[C@@H]1CCc2cc(O)ccc2[C@@H]1c1ccc(N2CCC(CN3CCN(c4ccc5c(c4)CN([C@H]4CCC(=O)NC4=O)C5=O)CC3)CC2)cc1 (single isomer, unassigned) [Compound I-25] |
| 40 | Cc1ccccc1[C@H]1CCc2cc(O)ccc2[C@H]1c1ccc(N2CCC(CN3CCN(c4ccc5c(c4)CN([C@H]4CCC(=O)NC4=O)C5=O)CC3)CC2)cc1 (single isomer, unassigned) [II-34] |
| 3 | O=C1CC[C@H](N2Cc3cc(N4CCN(CC5CCN(c6ccc([C@H]7c8ccc(C(=O)O)cc8CC[C@H]7c7ccccc7)cc6)CC5)CC4)ccc3C2=O)C(=O)N1 (single isomer, unassigned) [Compound I-1] |
| 0.76 | Cc1cc(N2CCC(CN3CCN(c4ccc5c(c4)CN([C@H]4CCC(=O)NC4=O)C5=O)CC3)CC2)ccc1[C@@H]1c2ccc(O)cc2CC[C@@H]1c1ccccc1 [Compound I-139, (S)-3-(5-(4-((1-(4-((1R,2S)-6-hydroxy-2-phenyl-1,2,3,4-tetrahydronaphthalen-1-yl)-3-methylphenyl)piperidin-4-yl)methyl)piperazin-1-yl)-1-oxoisoindolin-2-yl)piperidine-2,6-dione] |
| 0.64 | O=C1CC[C@H](N2Cc3cc(N4CCN(CC5CCN(c6ccc([C@@H]7c8ccc(O)cc8CC[C@@H]7c7ccc(F)cc7)cc6)CC5)CC4)ccc3C2=O)C(=O)N1 [II-94] |
| 8 | O=C1CCC(N2Cc3cc(N4CCN(CC5CCN(c6ccc([C@H]7c8ccc(O)cc8CC[C@H]7c7cccc8c7CC8)cc6)CC5)CC4)ccc3C2=O)C(=O)N1 (single isomer, unassigned) [Compound I-101] |
| 5 | C[C@@H](C1CCN(c2ccc([C@@H]3c4ccc(O)cc4CC[C@@H]3c3ccccc3)cc2)CC1)N1CCN(c2ccc3c(c2)CN(C2CCC(=O)NC2=O)C3=O)CC1 (single isomer, unassigned) [II-70] |
| 0.62 | O=C1CC[C@H](N2Cc3cc(N4CCN(CC5CCN(c6ccc([C@@H]7c8ccc(O)cc8C(F)(F)C[C@@H]7c7ccc(F)cc7)cc6)CC5)CC4)ccc3C2=O)C(=O)N1 [Compound I-192, (S)-3-(5-(4-((1-(4-((1R,2S)-4,4-difluoro-2-(4-fluorophenyl)-6-hydroxy-1,2,3,4-tetrahydronaphthalen-1-yl)phenyl)piperidin-4-yl)methyl)piperazin-1-yl)-1-oxoisoindolin-2-yl)piperidine-2,6-dione] |

The remaining lines, values behind:

| SMILES | DC50 [nM] |
| --- | --- |
| O=C1CC[C@H](N2Cc3cc(N4CCN(CC5CCN(c6ccc([C@H]7c8ccc(O)cc8CC[C@H]7C7CCC(F)(F)CC7)cc6)CC5)CC4)ccc3C2=O)C(=O)N1 (single isomer, unassigned) [Compound I-55] | 0.41 |
| O=C1CC[C@H](N2Cc3cc(N4CCN(CC5CCN(c6ccc([C@H]7c8ccc(O)cc8CO[C@H]7CC7CCCC7)cc6)CC5)CC4)ccc3C2=O)C(=O)N1 (single isomer, unassigned) [Compound I-233] | 31 |
| C[C@H]1C[C@@H](c2ccccc2)[C@@H](c2ccc(N3CCC(CN4CCN(c5ccc6c(c5)CN([C@H]5CCC(=O)NC5=O)C6=O)CC4)CC3)cc2)c2ccc(O)cc21 (single isomer, unassigned) [Compound I-331] | ≥ 10000 |
| O=C1CC[C@H](N2Cc3cc(N4CCN(CC5CCN(c6ccc([C@@H]7c8ccc(O)cc8CC[C@@H]7C7CCCCC7)cc6)CC5)CC4)ccc3C2=O)C(=O)N1 [Compound I-6, (3S)-3-[5-[4-[[1-[4-[(1R,2R)-2-cyclohexyl-6-hydroxy-tetralin-1-yl]phenyl]-4-piperidyl]methyl]piperazin-1-yl]-1-oxo-isoindolin-2-yl]piperidine-2,6-dione] | 2.24 |
| O=C1CC[C@H](N2Cc3cc(N4CCN(CC5CC6CCC(C5)N6c5ccc([C@H]6c7ccc(O)cc7CC[C@H]6c6ccccc6)cc5)CC4)ccc3C2=O)C(=O)N1 (single isomer, unassigned) [II-56] | 0.006 |
| O=C1CC[C@H](N2Cc3cc(N4CCN(CC5CCN(c6ccc(C7c8ccc(O)cc8CCN7C7CCCCC7)cc6)CC5)CC4)ccc3C2=O)C(=O)N1 (stereo partly drawn) [Compound I-9, (3S)-3-(5-(4-((1-(4-(2-cyclohexyl-6-hydroxy-1,2,3,4-tetrahydroisoquinolin-1-yl)phenyl)piperidin-4-yl)methyl)piperazin-1-yl)-1-oxoisoindolin-2-yl)piperidine-2,6-dione] | 11 |
| O=C1CC[C@H](N2Cc3cc(N4CCN(CC5CCN(c6ccc([C@H]7c8ccc(O)cc8CC[C@H]7c7ccccc7F)cc6)CC5)CC4)ccc3C2=O)C(=O)N1 (single isomer, unassigned) [II-25] | 1.17 |
| O=C1CC[C@H](N2Cc3cc(N4CCN(CC5CCN(c6ccc([C@H]7c8ccc(O)cc8CC[C@H]7C7CCCCC7)cc6)CC5)CC4)ccc3C2=O)C(=O)N1 [Compound I-5, (3S)-3-[5-[4-[[1-[4-[(1S,2S)-2-cyclohexyl-6-hydroxy-tetralin-1-yl]phenyl]-4-piperidyl]methyl]piperazin-1-yl]-1-oxo-isoindolin-2-yl]piperidine-2,6-dione] | ≥ 10000 |
| C[C@@H]1OC2(CCCCC2)[C@H](c2ccc(N3CCC(CN4CCN(c5ccc6c(c5)CN([C@H]5CCC(=O)NC5=O)C6=O)CC4)CC3)cc2)c2ccc(O)cc21 [Compound I-83, (S)-3-(5-(4-((1-(4-((1′S,4′R)-7′-hydroxy-1′-methylspiro[cyclohexane-1,3′-isochroman]-4′-yl)phenyl)piperidin-4-yl)methyl)piperazin-1-yl)-1-oxoisoindolin-2-yl)piperidine-2,6-dione] | 1 |
| O=C1CC[C@H](c2ccc(N3CCC4(CCN(CC5CCN(c6ccc([C@@H]7c8ccc(O)cc8C(F)(F)C[C@@H]7c7ccccc7)cc6)CC5)C4)CC3)cc2)C(=O)N1 (single isomer, unassigned) [Compound I-285] | 0.27 |
